Results from patent US20240408216A1, “PROTEIN INHIBITOR OR DEGRADING AGENT, PHARMACEUTICAL COMPOSITION CONTAINING SAME AND PHARMACEUTICAL USE” (JING MEDICINE TECHNOLOGY (SHANGHAI) LTD., priority 2021, published 2024).
Like-named read-outs stand apart in the source and are kept apart here.

How the values were obtained:
BaF3 (EGFR WT) = experiment: Cell proliferation IC50 assay (Cell Titer GLO), BaF3 WT cells; assay type: cell-based; conditions: Mus musculus, Ba/F3 EGFR, 72 h
How it was run: (§1)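 Cells plated at 2000-4000 per well, next day given serially diluted compound, then grown 72 h at 37 °C, 5% CO2. Viability by CellTiter-Glo luminescence versus DMSO control; IC50 from growth-inhibition curves.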

[1] = system: BaF3 (EGFR Del19/T790M/C797S); experiment: Cell proliferation IC50 assay (Cell Titer GLO), BaF3 DTC cells; assay type: cell-based; conditions: Mus musculus, Ba/F3 EGFR-Del19/T790M/C797S
Method: (§2) IC50 of compounds in the present invention was determined by Cell Titer GLO reagent from Promega. The procedures are as follows:
(§3) Tumor cells were cultured in specified medium in an incubator at 37° C. and 5% CO2. The cells were passaged periodically. Cells at the logarithmic growth phase were collected for plating at a density of 2000-4000 cells/well. The next day, the compounds of the present invention were serially diluted and added to the cells, with DMSO being the negative control and the culture media without cells being the blank control. The plate was incubated in the incubator for 72 h. The cell viability assay was performed by adding the detection reagents to the cell culture media according to Cell Titer GLO reagent instructions and detecting luminescent signals on an EnVision microplate reader (PerkinElmer).
(§4) Inhibition of cell growth by the compounds of the present invention was plotted by Prism Graphpad software for statistically calculating the IC50 of the compound of the present invention.

BaF3 patent = experiment: Cell proliferation IC50 assay (Cell Titer GLO), BaF3 parental cells; assay type: cell-based; conditions: Mus musculus
Method: as §2, §3, §4

A431 = experiment: Cell proliferation IC50 assay (Cell Titer GLO), A431 cells; assay type: cell-based; conditions: Homo sapiens, A-431, A431, 72 h, read-out: A431 IC50
How it was run: as §1

[2] = system: BaF3 (EGFR L858R/T790M/C797S); experiment: Cell proliferation IC50 assay (Cell Titer GLO), BaF3 LTC cells; assay type: cell-based; conditions: Mus musculus, Ba/F3 EGFR
How it was run: as §1

BaF3 (EGFR Del19/C797S) = target: T1, BaF3 (EGFR Del19/C797S) (Homo sapiens, UniProt P00533, C797S, cells depend on it, form not given); experiment: Cell proliferation IC50 assay (Cell Titer GLO), BaF3 DC cells; assay type: cell-based, mouse; conditions: Table 6, 72 h
T1 construct: BaF3 (EGFR Del19/C797S)|DC|RPMI1640 + 10% FBS
T1 sequence (P00533 with tags, fused parts or gaps DEL746-750/C797S, form open): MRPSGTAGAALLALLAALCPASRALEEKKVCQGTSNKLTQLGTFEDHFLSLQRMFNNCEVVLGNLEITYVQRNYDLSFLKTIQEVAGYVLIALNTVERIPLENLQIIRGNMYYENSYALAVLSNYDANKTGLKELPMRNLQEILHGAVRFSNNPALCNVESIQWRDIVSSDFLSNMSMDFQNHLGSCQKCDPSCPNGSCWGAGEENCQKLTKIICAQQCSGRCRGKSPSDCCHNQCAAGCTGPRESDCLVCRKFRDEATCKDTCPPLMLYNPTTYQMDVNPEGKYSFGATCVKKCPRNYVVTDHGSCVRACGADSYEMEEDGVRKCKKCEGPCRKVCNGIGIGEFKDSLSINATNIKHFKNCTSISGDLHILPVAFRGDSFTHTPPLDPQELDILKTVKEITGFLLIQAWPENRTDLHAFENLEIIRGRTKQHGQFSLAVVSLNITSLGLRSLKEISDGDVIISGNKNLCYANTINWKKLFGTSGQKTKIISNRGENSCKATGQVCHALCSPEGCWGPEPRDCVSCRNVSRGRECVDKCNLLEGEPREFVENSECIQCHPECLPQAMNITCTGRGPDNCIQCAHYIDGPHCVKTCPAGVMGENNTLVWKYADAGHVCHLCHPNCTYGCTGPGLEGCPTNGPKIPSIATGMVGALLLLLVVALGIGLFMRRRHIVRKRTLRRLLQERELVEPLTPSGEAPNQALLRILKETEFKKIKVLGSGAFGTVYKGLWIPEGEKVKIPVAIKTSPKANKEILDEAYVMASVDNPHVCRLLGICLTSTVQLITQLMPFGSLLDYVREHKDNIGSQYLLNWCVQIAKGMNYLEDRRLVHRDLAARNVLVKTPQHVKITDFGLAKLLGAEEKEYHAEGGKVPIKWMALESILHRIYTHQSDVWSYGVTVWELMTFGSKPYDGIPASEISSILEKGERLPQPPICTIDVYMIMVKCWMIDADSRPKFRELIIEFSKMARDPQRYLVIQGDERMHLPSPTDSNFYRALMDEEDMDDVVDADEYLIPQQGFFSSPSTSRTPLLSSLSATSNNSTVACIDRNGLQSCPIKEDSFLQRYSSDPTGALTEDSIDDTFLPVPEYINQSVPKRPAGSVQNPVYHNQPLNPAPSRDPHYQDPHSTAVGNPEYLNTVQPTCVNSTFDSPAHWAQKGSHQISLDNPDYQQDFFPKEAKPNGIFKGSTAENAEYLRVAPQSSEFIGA
How it was run: as §1

Work on CP(C)(=O)c1ccccc1Nc1nc(Nc2ccc(N3CCC4(CCN(CCCC#Cc5cccc6c5CN(C5CCC(=O)NC5=O)C6=O)CC4)CC3)c(Cl)c2)ncc1Cl (stereo not shown) [Example E18] yielded an IC50 (BaF3 (EGFR WT); Table 5, 10 ng/ml EGF) of 724 nM, an IC50 ([1]; Table 5, 72 h) of 30.9 nM and an IC50 (BaF3 patent; Table 5, 10 ng/ml mIL3, 72 h) of 786 nM. For the same molecule, the IC50 (A431; Table 5) was 2180 nM and the IC50 ([2]; Table 5, 72 h) was 266 nM.
CCc1cc(Nc2ncc(Cl)c(Nc3ccccc3P(C)(C)=O)n2)c(OC)cc1N1CCC(N2CCN(CCCCCc3cc4c(cc3F)C(=O)N(C3CCC(=O)NC3=O)C4)CC2)CC1 (stereo not shown) [Example E19] gave an IC50 (BaF3 (EGFR WT); Table 5, 10 ng/ml EGF) greater than 4000 nM, an IC50 ([1]; Table 5, 72 h) of 8.9 nM and an IC50 (BaF3 patent; Table 5, 10 ng/ml mIL3, 72 h) greater than 4000 nM. It also gave an IC50 (A431; Table 5) of 1070 nM and an IC50 ([2]; Table 5, 72 h) of 61.1 nM.
Molecule CCc1cc(Nc2ncc(Cl)c(Nc3ccccc3P(C)(C)=O)n2)c(OC)cc1N1CCC(N2CCC3(CCC(Oc4cccc5c4CN(C4CCC(=O)NC4=O)C5=O)CC3)C2)CC1 (stereo not shown) [Example E21] has an IC50 (BaF3 (EGFR WT); Table 5, 10 ng/ml EGF) of 636 nM, an IC50 ([1]; Table 5, 72 h) of 1.9 nM and an IC50 (BaF3 patent; Table 5, 10 ng/ml mIL3, 72 h) of 410 nM. It also gave an IC50 (A431; Table 5) of 1010 nM and an IC50 ([2]; Table 5, 72 h) of 16.8 nM.
CCc1cc(Nc2ncc(Br)c(Nc3ccc4c(c3P(C)(C)=O)OCCO4)n2)c(OC)cc1N1CCC(N2CCN(CCC#Cc3cccc4c3CN(C3CCC(=O)NC3=O)C4=O)CC2)CC1 (stereo not shown) [Example E22] gave an IC50 (BaF3 (EGFR WT); Table 6, 10 ng/ml EGF) of 275 nM, an IC50 (BaF3 patent; Table 6, 10 ng/ml mIL3, 72 h) of 385 nM and an IC50 (A431; Table 6) of 1050 nM. It also gave an IC50 (BaF3 (EGFR Del19/C797S)) of 4.1 nM and an IC50 ([2]; Table 6, 72 h) of 34.1 nM.
With CCc1cc(Nc2ncc(Cl)c(Nc3ccccc3P(C)(C)=O)n2)c(OC)cc1N1CCC2(CCN(CCCCC#Cc3cccc4c3CN(C3CCC(=O)NC3=O)C4=O)CC2)CC1 (stereo not shown) [Example E23] the IC50 (BaF3 (EGFR WT); Table 5, 10 ng/ml EGF) was greater than 4000 nM, the IC50 ([1]; Table 5, 72 h) was 9.4 nM and the IC50 (BaF3 patent; Table 5, 10 ng/ml mIL3, 72 h) was greater than 4000 nM. The IC50 (A431; Table 5) was greater than 4000 nM and the IC50 ([2]; Table 5, 72 h) was 106 nM.
For CCc1cc(Nc2ncc(Cl)c(Nc3ccccc3P(C)(C)=O)n2)c(OC)cc1N1CCC(N2CCN(CCC#Cc3ccc4c(c3)CN(C3CCC(=O)NC3=O)C4=O)CC2)CC1 (stereo not shown) [Example E24], the IC50 (BaF3 (EGFR WT); Table 5, 10 ng/ml EGF) was 1550 nM, the IC50 ([1]; Table 5, 72 h) was 35.4 nM and the IC50 (BaF3 patent; Table 5, 10 ng/ml mIL3, 72 h) was 1260 nM. For the same molecule, the IC50 (A431; Table 5) was 1460 nM and the IC50 ([2]; Table 5, 72 h) was 70.6 nM.
Work on CCc1cc(Nc2ncc(Cl)c(Nc3ccccc3P(C)(C)=O)n2)c(OC)cc1N1CCC(N2CCN(CC#Cc3cccc4c3CN(C3CCC(=O)NC3=O)C4=O)CC2)CC1 (stereo not shown) [Example E25] yielded an IC50 (BaF3 (EGFR WT); Table 5, 10 ng/ml EGF) of 1370 nM, an IC50 ([1]; Table 5, 72 h) of 13.7 nM and an IC50 (BaF3 patent; Table 5, 10 ng/ml mIL3, 72 h) of 1210 nM. For the same molecule, the IC50 (A431; Table 5) was 1260 nM and the IC50 ([2]; Table 5, 72 h) was 57.2 nM.
In the case of CCc1cc(Nc2ncc(Cl)c(Nc3ccccc3P(C)(C)=O)n2)c(OC)cc1N1CCC(N2CCN(CCCc3cccc4c3CN(C3CCC(=O)NC3=O)C4=O)CC2)CC1 (stereo not shown) [Example E26], the IC50 (BaF3 (EGFR WT); Table 5, 10 ng/ml EGF) is reported as 517 nM, the IC50 ([1]; Table 5, 72 h) is reported as 8 nM and the IC50 (BaF3 patent; Table 5, 10 ng/ml mIL3, 72 h) is reported as 546 nM. It also gave an IC50 (A431; Table 5) of 1090 nM and an IC50 ([2]; Table 5, 72 h) of 53.5 nM.
In the case of COc1cc(N2CCC(N3CCC4(CCC(Oc5cccc6c5CN(C5CCC(=O)NC5=O)C6=O)CC4)C3)CC2)c(C2CC2)cc1Nc1ncc(Cl)c(Nc2ccccc2P(C)(C)=O)n1 (stereo not shown) [Example E27], the IC50 (BaF3 (EGFR WT); Table 5, 10 ng/ml EGF) is reported as 937 nM, the IC50 ([1]; Table 5, 72 h) is reported as 3.3 nM and the IC50 (BaF3 patent; Table 5, 10 ng/ml mIL3, 72 h) is reported as 375 nM. It also gave an IC50 (A431; Table 5) of 1190 nM and an IC50 ([2]; Table 5, 72 h) of 29.8 nM.
In the case of CCc1cc(Nc2ncc(Cl)c(Nc3ccccc3P(C)(C)=O)n2)c(OC)cc1N1CCC(N2CCC3(CCC(=Cc4cccc5c4CN(C4CCC(=O)NC4=O)C5=O)CC3)C2)CC1 (stereo not shown) [Example E40], the IC50 (BaF3 (EGFR WT); Table 6, 10 ng/ml EGF) is reported as 260 nM, the IC50 (BaF3 patent; Table 6, 10 ng/ml mIL3, 72 h) is reported as 131 nM and the IC50 (A431; Table 6) is reported as 1210 nM. It also gave an IC50 (BaF3 (EGFR Del19/C797S)) of 4.9 nM and an IC50 ([2]; Table 6, 72 h) of 17.5 nM.
COc1cc(N2CCC(N3CCN(CCC#Cc4cccc5c4CN(C4CCC(=O)NC4=O)C5=O)CC3)CC2)c(C)cc1Nc1ncc(Br)c(Nc2ccc3c(c2P(C)(C)=O)OCCO3)n1 (stereo not shown) [Example E43] showed an IC50 (BaF3 (EGFR WT); Table 6, 10 ng/ml EGF) of 330 nM, an IC50 (BaF3 patent; Table 6, 10 ng/ml mIL3, 72 h) of 122 nM and an IC50 (A431; Table 6) of 1060 nM. It also gave an IC50 (BaF3 (EGFR Del19/C797S)) of 6.6 nM and an IC50 ([2]; Table 6, 72 h) of 15.8 nM.
CCc1cc(Nc2ncc(Cl)c(Nc3ccccc3P(C)(C)=O)n2)c(OC)cc1N1CCC(N2CCC3(CCC(Cc4cccc5c4CN(C4CCC(=O)NC4=O)C5=O)CC3)C2)CC1 (stereo not shown) [Example E45] showed an IC50 (BaF3 (EGFR WT); Table 6, 10 ng/ml EGF) of 585 nM, an IC50 (BaF3 patent; Table 6, 10 ng/ml mIL3, 72 h) of 221 nM and an IC50 (A431; Table 6) of 1240 nM. For the same molecule, the IC50 (BaF3 (EGFR Del19/C797S)) was 8.5 nM and the IC50 ([2]; Table 6, 72 h) was 21.2 nM.
COc1cc(N2CCC(N3CCN(CCC#Cc4cccc5c4CN(C4CCC(=O)NC4=O)C5=O)CC3)CC2)ncc1Nc1ncc(Cl)c(Nc2ccccc2P(C)(C)=O)n1 (stereo not shown) [Example E71] was tested, and the IC50 (BaF3 (EGFR WT); Table 6, 10 ng/ml EGF) was 1550 nM, the IC50 (BaF3 patent; Table 6, 10 ng/ml mIL3, 72 h) was 719 nM and the IC50 (A431; Table 6) was greater than 4000 nM. The IC50 (BaF3 (EGFR Del19/C797S)) was 54.4 nM and the IC50 ([2]; Table 6, 72 h) was 62.3 nM.
[2H]C([2H])([2H])C([2H])([2H])c1cc(Nc2ncc(Cl)c(Nc3ccccc3P(C)(C)=O)n2)c(OC)cc1N1CCC(N2CCN(CCOc3ccc4c(c3)CN(C3CCC(=O)NC3=O)C4=O)CC2)CC1 (stereo not shown) [Example E221] was tested, and the IC50 (BaF3 (EGFR WT); Table 6, 10 ng/ml EGF) was 1750 nM, the IC50 ([1]; Table 6, 72 h) was 12.1 nM and the IC50 (A431; Table 6) was greater than 4000 nM. The IC50 (BaF3 (EGFR Del19/C797S)) was 6.4 nM and the IC50 ([2]; Table 6, 72 h) was 22.5 nM.
